Source: patent US11701355B2, “Levosimendan for treating pulmonary hypertension with heart failure with preserved ejection fraction (PH-HFpEF)” (Tenax Therapeutics, Inc., priority 2019, dated 2023)
Several values for one entry are separate records, joined by “and”; a condition that tells them apart may be missing. Equal values may be shown once.

Experiments:
[1] = tested on: PH-HFpEF patients; assay: HELP Study open-label lead-in phase: 24-hour levosimendan infusion, right heart catheterization at rest and 25 watt exercise; assay type: in vivo, human
Description: Enrolled PH-HFpEF subjects receive a lead-in 24-hour levosimendan infusion to determine their hemodynamic response and eligibility for the double-blind phase of the study. A total of 36 “responders” are randomized in the double-blind, placebo-controlled phase. “Responders” are identified as those subjects with a ≥4 mmHg reduction in PCWP during bicycle exercise (25 watts) and no more than a 10% decrease in cardiac index between the baseline measurements and repeated measurements following the initial infusion.
Study drug is administered via i.v. infusion over 24 hours weekly through Week 5 via a PICC line. Infusions (Week 2-5) are done in the subject's home by a study nurse. Patients return to the study site for a visit between the Week 3 and Week 4 infusions for assessment of subject safety/response and need for dose adjustment. Each subject is to return on Week 6 for assessment of efficacy and safety on study drug. A right heart catheter will be inserted to obtain hemodynamic measurements at rest and exercise at baseline, the following day after the lead-in 24-hour infusion, and during Week 6.
During the Lead-in phase, levosimendan, supplied as a concentrated solution (2.5 mg/mL), is mixed with diluent and administered intravenously at 0.10 μg/kg/min for 24 hours +/−30 min.
Visits during the Lead-In phase of the trial require a subject to be hospitalized for the entire infusion period, which at a minimum will last 24 hours. Once the infusion is complete, hemodynamic measurements are collected to ensure subject eligibility. Visits for Week 2 through Week 6 are calculated based on the date of the Lead-in infusion.
During the Lead-in Infusion (Day 0) the following procedures are performed: Measure vital signs (BP, PR, respiratory rate, temperature), venous sheath placement for right heart catheterization (The sheath will remain following the baseline study, and the patient is hospitalized where they receive the 24-hour levosimendan infusion (preferably through the venous sheath). The sheath is then used for access for the right heart catheterization study following the 24-hour levosimendan infusion, and then removed), right heart catheterization measurements: baseline (prior to levosimendan infusion) and post 24-hour infusion to establish qualifying baseline hemodynamics at rest and exercise and to establish qualifying response to levosimendan during exercise, assess adverse events, assess concomitant medications and/or procedures, pharmacokinetic sampling (to be taken at the end of infusion: 24+/−2 hours), genotyping sampling (to be taken at the end of infusion: 24+/−2 hours). […] A PICC line is placed in patients that meet eligibility criteria and who are randomized into the Double-Blind phase of the study.

[2] = tested on: HFrEF patients; conditions: compared with placebo; cited from earlier work
[3] = tested on: phosphodiesterase-3 (PDE3); conditions: in vitro; cited from earlier work
[4] = average of 30 patients, 25 watts exercise
[5] = average of 30 patients, rest legs down
[6] = first 30 randomized patients, 25 watts exercise
[7] = first 30 randomized patients, rest
[8] = individual patients, after 24-hour lead-in infusion, 25 watts exercise
[9] = individual patients, after 24-hour lead-in infusion, rest legs down
[10] = individual patients, post vs pre, 25 watts exercise
[11] = individual patients, post vs pre, rest legs down

## C[C@@H]1CC(=O)NN=C1c1ccc(NN=C(C#N)C#N)cc1 [levosimendan, Levosimendan]
[1]; acute (24 hours) open-label levosimendan, n=44
  patients who exhibited a ≥4 mmHg decrease of PCWP: 85%
[1]; [4]
  Exercise CO Change Avg: 0.6 L/min
  PCWP Exercise Change Avg: −7.53 mmHg
  RAP (Exercise) Change Avg: −4.97 mmHg
  mPAP Exercise Change Avg: −5.1 mmHg
[1]; [5]
  PCWP-Rest (down) Change Avg: −5.800 mmHg
  RAP (Rest-down) Change Avg: −4.83 mmHg
  Rest (down) CO Change Avg: 0.33 L/min
  mPAP Rest (down) Change Avg: −5.4 mmHg
[1]; [6]
  increase of cardiac output during 25 watts of exercise, average: 0.60 L/min
  reduction of mean pulmonary arterial pressure during 25 watts of exercise, average: 5.1 mmHg
  reduction of pulmonary capillary wedge pressure during 25 watts of exercise, average: 7.53 mmHg
  reduction of right atrial pressure during 25 watts of exercise, average: 4.97 mmHg
[1]; [7]
  increase of cardiac output during rest, average: 0.33 L/min
  reduction of mean pulmonary arterial pressure during rest, average: 5.4 mmHg
  reduction of pulmonary capillary wedge pressure during rest, average: 5.8 mmHg
  reduction of right atrial pressure during rest, average: 4.83 mmHg
[1]; first 30 randomized patients, rest, baseline 23.4
  pulmonary capillary wedge pressure during rest after levosimendan, average: 17.6 mmHg
[1]; first 30 randomized patients, baseline 5.1
  cardiac output during rest after levosimendan, average: 5.5 L/min
[1]; first 30 randomized patients, baseline 6.7
  cardiac output during 25 watts of exercise after levosimendan, average: 7.4 L/min
[1]; first 30 randomized patients, baseline 16.2
  right atrial pressure during rest after levosimendan, average: 11.3 mmHg
[1]; first 30 randomized patients, baseline 27.9
  right atrial pressure during 25 watts of exercise after levosimendan, average: 23.0 mmHg
[1]; first 30 randomized patients, baseline 33.2
  pulmonary capillary wedge pressure during 25 watts of exercise after levosimendan, average: 25.7 mmHg
[1]; first 30 randomized patients, baseline 42.4
  mean pulmonary arterial pressure during rest after levosimendan, average: 37.0 mmHg
[1]; first 30 randomized patients, baseline 58.3
  mean pulmonary arterial pressure during 25 watts of exercise after levosimendan, average: 53.3 mmHg
[1]; [8]
  Exercise CO Post: 3.55 l/min and 3.25 l/min and 5.5 l/min and 5.05 l/min and 9.1 l/min (2×) and 4.68 l/min and 5.725 l/min and 5.9 l/min and 9 l/min and 7.65 l/min and 11.3 l/min and 7.9 l/min and 7.1 l/min and 12.8 l/min and 5.2 l/min and 8.0 l/min and 10.5 l/min and 4.2 l/min and 13.9 l/min and 7.2 l/min and 10.6 l/min and 11.1 l/min and 5.4 l/min and 6.5 l/min (2×) and 4.23 l/min and 6.93 l/min and 6.05 l/min and 7.7 l/min
  PCWP Exercise Post: 27 mmHg and 33 mmHg (2×) and 23 mmHg (2×) and 42 mmHg and 35 mmHg and 20 mmHg (2×) and 15 mmHg (2×) and 31 mmHg (2×) and 18 mmHg (4×) and 28 mmHg (4×) and 30 mmHg and 22 mmHg and 24 mmHg and 19 mmHg (2×) and 25 mmHg and 29 mmHg and 34 mmHg and 37 mmHg
  RAP (Exercise) Post: 34 mmHg and 17 mmHg (2×) and 10 mmHg and 20 mmHg (4×) and 16 mmHg (3×) and 24 mmHg and 36 mmHg and 18 mmHg and 12 mmHg (3×) and 22 mmHg and 29 mmHg (2×) and 25 mmHg (3×) and 28 mmHg (2×) and 19 mmHg and 38 mmHg (2×) and 37 mmHg and 26 mmHg
  mPAP Exercise Post: 52 mmHg (4×) and 47 mmHg (3×) and 67 mmHg and 48 mmHg and 40 mmHg and 80 mmHg and 57 mmHg and 38 mmHg (3×) and 35 mmHg and 50 mmHg and 55 mmHg and 51 mmHg (2×) and 58 mmHg and 27 mmHg and 60 mmHg and 66 mmHg and 36 mmHg and 81 mmHg and 68 mmHg (2×) and 75 mmHg and 62 mmHg
[1]; [9]
  RAP (Rest-down) Post: 17 mmHg and 5 mmHg and 4 mmHg and 12 mmHg (6×) and 7 mmHg and 18 mmHg (2×) and 3 mmHg and 8 mmHg (2×) and 9 mmHg (2×) and 13 mmHg (2×) and 10 mmHg (3×) and 11 mmHg (2×) and 15 mmHg (2×) and 1 mmHg and 14 mmHg and 19 mmHg and 20 mmHg
  Rest (down) CO Post-Levo: 3.0 l/min and 3.2 l/min and 4.5 l/min and 3.8 l/min (2×) and 6.9 l/min and 6.2 l/min and 4.2 l/min and 5.2 l/min and 6.5 l/min (2×) and 5.3 l/min (3×) and 5.6 l/min and 7.6 l/min and 4.1 l/min and 6.0 l/min and 8.6 l/min and 5.9 l/min and 4.3 l/min and 6.4 l/min and 4.0 l/min and 11.0 l/min and 4.7 l/min and 4.4 l/min and 3.9 l/min and 5.4 l/min and 5.8 l/min and 7.0 l/min
  mPAP Rest (down) Post-Levo: 45 mmHg and 27 mmHg and 35 mmHg (2×) and 25 mmHg and 21 mmHg (2×) and 65 mmHg and 38 mmHg and 28 mmHg (2×) and 37 mmHg (2×) and 30 mmHg (2×) and 42 mmHg and 41 mmHg and 26 mmHg (2×) and 46 mmHg and 24 mmHg (2×) and 29 mmHg and 34 mmHg and 32 mmHg and 62 mmHg and 57 mmHg (2×) and 59 mmHg and 49 mmHg
[1]; individual patients, n=30 responders, after 24-hour lead-in infusion, rest legs down
  PCWP-Rest (down) Post-Levo: 17 mmHg (6×) and 19 mmHg (2×) and 12 mmHg (2×) and 21 mmHg (3×) and 18 mmHg and 23 mmHg (2×) and 14 mmHg (3×) and 16 mmHg (2×) and 29 mmHg and 8 mmHg (2×) and 22 mmHg and 20 mmHg (2×) and 15 mmHg and 13 mmHg and 27 mmHg
[1]; individual patients, post vs pre levosimendan lead-in infusion, rest legs down
  PCWP-Rest (down) Change: −3 mmHg (5×) and −8 mmHg and −11 mmHg (2×) and 1 mmHg and −12 mmHg (2×) and 3 mmHg and −6 mmHg (2×) and −18 mmHg and −13 mmHg (2×) and −2 mmHg (3×) and −5 mmHg (2×) and 2 mmHg and 0 mmHg and −10 mmHg and −9 mmHg and −14 mmHg and −1 mmHg (2×) and −4 mmHg
[1]; [10]
  Exercise CO Change: 0.4 l/min (2×) and 0.0 l/min (2×) and 0.8 l/min (3×) and −0.3 l/min (2×) and −0.2 l/min (2×) and 0.3 l/min and 1.7 l/min (2×) and 0.2 l/min (2×) and 1.8 l/min (2×) and 1.9 l/min and −1.7 l/min and 4.8 l/min and 1.5 l/min and 0.1 l/min and −0.5 l/min (2×) and −1.0 l/min and 0.9 l/min and 1.0 l/min and 1.4 l/min and 1.3 l/min
  PCWP Exercise Change: −8 mmHg (3×) and −7 mmHg (4×) and −13 mmHg and −5 mmHg (7×) and −10 mmHg and −4 mmHg (3×) and −22 mmHg and −14 mmHg (2×) and −6 mmHg (6×) and −9 mmHg (2×)
  RAP (Exercise) Change: −8 mmHg (5×) and −4 mmHg and −3 mmHg (3×) and −6 mmHg (2×) and −12 mmHg and −11 mmHg and 1 mmHg (3×) and −18 mmHg and −9 mmHg and −5 mmHg (2×) and −14 mmHg and −2 mmHg (3×) and 3 mmHg and 6 mmHg and 0 mmHg (2×) and −15 mmHg and −1 mmHg
  mPAP Exercise Change: −7 mmHg and −3 mmHg (4×) and −15 mmHg (2×) and −5 mmHg (2×) and 2 mmHg and −22 mmHg and −13 mmHg (2×) and 4 mmHg (2×) and −8 mmHg (2×) and −9 mmHg and 12 mmHg and −4 mmHg (2×) and −2 mmHg and 1 mmHg (3×) and 6 mmHg and −11 mmHg and −12 mmHg (2×) and −6 mmHg
[1]; [11]
  RAP (Rest-down) Change: −3 mmHg (3×) and −4 mmHg (5×) and 0 mmHg (3×) and −5 mmHg (6×) and 1 mmHg and −23 mmHg and −1 mmHg and −7 mmHg (3×) and −6 mmHg (2×) and −2 mmHg (2×) and −9 mmHg (2×) and −8 mmHg
  Rest (down) CO Change: 0.17 l/min and 0.23 l/min (2×) and 0.27 l/min and 0.43 l/min and 1.06 l/min (2×) and 0.05 l/min and 0.62 l/min and 1.40 l/min and −0.07 l/min and 0.67 l/min and 2.03 l/min and −0.97 l/min and 1.03 l/min and 1.60 l/min and 0.00 l/min and 0.20 l/min and −0.53 l/min (2×) and 0.07 l/min and −0.47 l/min and 0.13 l/min and −1.07 l/min and −1.87 l/min and −0.30 l/min and 0.85 l/min and 1.50 l/min and 1.20 l/min and 0.87 l/min
  mPAP Rest (down) Change: −5 mmHg (2×) and −8 mmHg (2×) and −11 mmHg (2×) and 1 mmHg and −10 mmHg (2×) and 5 mmHg (3×) and −2 mmHg (2×) and −22 mmHg and −12 mmHg (2×) and 2 mmHg (2×) and −9 mmHg (4×) and 3 mmHg and −6 mmHg and −4 mmHg and −13 mmHg and −14 mmHg and 6 mmHg and 0 mmHg
[2]
  cardiac output, stroke volume, ejection fraction, and heart rate: increased
  systolic blood pressure, diastolic blood pressure, pulmonary capillary wedge pressure, right atrial pressure, and peripheral vascular resistance: reduced
[3]
  PDE3/PDE4 inhibition ratio: 10,000
